Data on 15 compounds can be found in patent US4021449A (Kyowa Hakko Kogyo Co., Ltd., priority 1973, dated 1977).

Series [1] relates to Streptococcus faecalis ATCC 10541. Kind of series: Antibacterial spectrum, minimum inhibitory concentration (Table 1). The format is cell-based.
For series [2] the following is noted: known; derivatives of U.S. Pat. No. 3,514,452; cited from earlier work.
In the next series the test system is tumor. The conditions noted are these: known; cited from earlier work.
For series [3], the system named is Gram-nagative and Gram-positive bacteria. The following applies: known; cited from earlier work.
The subject of series [4] is Staphylococcus aureus ATCC 6538P. Description: Antibacterial spectrum, minimum inhibitory concentration (Table 1). Type of series: cell-based. The following applies: ATCC6538P, read-out: Minimum Inhibitory Concentration, Staphylococcus aureus ATCC 6538P.
For series [5], the system named is Klebsiella penumoniae ATCC 10031. Described as above. The following applies: ATCC10031, read-out: Minimum Inhibitory Concentration, Klebsiella penumoniae ATCC 10031. Type of series: cell-based.
A short description of a further series: in vivo. The following applies: mouse, ip. As for the experimental part: The acute toxicity (determined as LD50) is determined in mice by intraperitoneal injection.
A short description of series [6]: Lipid-solubility: distribution ratio in butanol/water (1:1) (Table 2). The format is physicochemical. The conditions noted are these: in butanol/water (1:1) at 25° C. An excerpt:
In determining the lipid-solubility, the distribution ratio of the compound in water and butanol (1:1) is used as the standard.

Another series has as its system Sarcoma 180 solid tumor. Description: Anti-tumor activity against Sarcoma 180 solid tumor in mice (Table 3). The conditions noted are these: male dd-strain mice; one-sixth of LD50 i.p. once daily for 8 days; tumor weight on 10th day after transplantation. Type of series: in vivo. As for the experimental part: Small portions of Sarcoma 180 solid tumor are transplanted subcutaneously into male dd-strain mice of about 20 g body weight. To each of 10 mice transplanted with tumor, a solution containing one-sixth of the LD50 value of the test compound is administered intraperitoneally once daily for 8 days starting on the day following the transplantation.
As a control, an equal volume of saline is injected in the same manner as above. On the 10th day after the transplantation, the mice are sacrificed and the weight of the tumor is measured. The ratio of average tumor weight of test animals to average tumor weight of control animals (T/C) is calculated.

The mark [7] stands for this setting: Enterococcus faecalis, ATCC10541; read-out: Minimum Inhibitory Concentration, Streptococcus faecalis ATCC 10541.

Each structure is given as a SMILES string. Converted amounts (≈) assume the structure as drawn. Read-outs that look alike come from different tables or passages of the source. Where only a bound is given, the exact number is not on record here.

`COC12C(COC(N)=O)C3=C(C(=O)C(C)=C(N)C3=O)N1CC1NC12` (single isomer, unassigned) [mitomycin C, reference compound]: the MIC is 0.391 µg/mL (≈ 1.17 µM) in series [1] (setting [7]), 0.049 µg/mL (≈ 0.147 µM) in series [4] and less than 0.025 µg/mL in series [5]. Besides, the “toxicity (in words)” value in series [2] is “very toxic”. Further, in the series on tumor, the “anti-tumor activity (in words)” value is “remarkably strong anti-tumor activity”. Further, the “antibacterial activity (in words)” value in series [3] was “very strong antibacterial activity against Gram-nagative and Gram-positive bacteria”.
Consider `COC12C(COC(N)=O)C3=C(C(=O)C(C)=C(N)C3=O)N1CC1C2N1C(C)=O` (stereo not drawn) [1a-acetyl mitomycin C, reference compound], for which the MIC in series [1] (setting [7]) worked out at 6.25 µg/mL (≈ 16.6 µM); in series [4], 1.56 µg/mL (≈ 4.15 µM); in [5] it was 0.782 µg/mL (≈ 2.08 µM). For the same compound, in series [2], the “toxicity (in words)” value is “much less toxicity than mitomycin C”. Also, the LD50 (as a rule, the dose expected to kill half of the subjects tested) in the series “in vivo” is 23 mg/kg. Moreover, the “Distribution Ratio (butanol/water)” value in series [6] is on record as 3.749. The “Sarcoma 180 (T/C), ratio of average tumor weight of test animals to control animals” value (“Sarcoma 180 (T/C), ratio” for short) in the series with Sarcoma 180 solid tumor stood at 0.48.
For `CCCC(=O)N1C2CN3C4=C(C(=O)C(N)=C(C)C4=O)C(COC(N)=O)C3(OC)C21` (stereo not drawn) [1a-butyryl mitomycin C, reference compound], the MIC was determined as 25 µg/mL (≈ 61.8 µM) in series [1] (setting [7]), 3.12 µg/mL (≈ 7.73 µM) in series [4] and 3.12 µg/mL (≈ 7.73 µM) in series [5]. Further, the “toxicity (in words)” value in series [2] is “much less toxicity than mitomycin C”. This compound showed an LD50 in “in vivo” of 19 mg/kg. Besides, the “Distribution Ratio (butanol/water)” value in series [6] is 4.402. Further, in the series on Sarcoma 180 solid tumor, the “Sarcoma 180 (T/C), ratio” value is reported as 0.59.
In the case of `C/C=C/C(=O)N1C2CN3C4=C(C(=O)C(N)=C(C)C4=O)C(COC(N)=O)C3(OC)C21` (stereo not drawn) [1a-crotonoyl mitomycin C, reference compound], the MIC was determined as 12.5 µg/mL (≈ 31.1 µM) in series [1] (setting [7]), 1.56 µg/mL (≈ 3.88 µM) in [4] and 0.782 µg/mL (≈ 1.94 µM) in series [5]. Moreover, the 50% lethal dose (LD50) in “in vivo” amounted to 35.5 mg/kg. In addition, the “Sarcoma 180 (T/C), ratio” value with Sarcoma 180 solid tumor came to 0.53.
Regarding `CCCCCCCCCC(=O)N1C2CN3C4=C(C(=O)C(N)=C(C)C4=O)C(COC(N)=O)C3(OC)C21` (stereo not drawn) [1a-decanoyl mitomycin C, la-decanoyl mitomycin C], the MIC in series [1] (setting [7]) was more than 50 µg/mL; in series [4], 0.782 µg/mL (≈ 1.6 µM); in series [5], 12.5 µg/mL (≈ 25.6 µM). This compound gave a median lethal dose (LD50) in “in vivo” of 67.5 mg/kg. Besides, the “Distribution Ratio (butanol/water)” value in series [6] is recorded as 7.889.
`CCCCCCCCCCCC(=O)N1C2CN3C4=C(C(=O)C(N)=C(C)C4=O)C(COC(N)=O)C3(OC)C21` (stereo not drawn) [1a-lauroyl mitomycin C, la-lauroyl mitomycin C]: the MIC in series [1] (setting [7]) was more than 50 µg/mL; in series [4], 0.391 µg/mL (≈ 0.757 µM); in series [5] it was more than 50 µg/mL. The compound also returned an LD50 in the series “in vivo” of 44.5 mg/kg.
Regarding `CC/C=C\C/C=C\C/C=C\CCCCCCCC(=O)N1[C@H]2[C@@H]1CN1C3=C(C(=O)C(N)=C(C)C3=O)[C@@H](COC(N)=O)[C@@]21OC` [1a-linolenoyl mitomycin C, la-linolenoyl mitomycin C], the MIC in series [1] (setting [7]) is 1.56 µg/mL (≈ 2.63 µM); in series [4], 0.782 µg/mL (≈ 1.31 µM); in series [5], 6.25 µg/mL (≈ 10.5 µM). In the series “in vivo”, this compound had an LD50 of 95 mg/kg.
In the case of `CCCCC/C=C\C/C=C\CCCCCCCC(=O)N1C2CN3C4=C(C(=O)C(N)=C(C)C4=O)C(COC(N)=O)C3(OC)C21` (stereo not drawn) [1a-linoleoyl mitomycin C, la-linoleoyl mitomycin C], the MIC in series [1] (setting [7]) worked out at 0.782 µg/mL (≈ 1.31 µM); in [4] it was 0.782 µg/mL (≈ 1.31 µM); in series [5], 12.5 µg/mL (≈ 20.9 µM). Moreover, the median lethal dose (LD50) in the series “in vivo” stood at 110 mg/kg. The “Distribution Ratio (butanol/water)” value in series [6] came to 9.665. For the same compound, the “Sarcoma 180 (T/C), ratio” value with Sarcoma 180 solid tumor is on record as 0.35.
Take `CCCCCCCCCCCCCC(=O)N1C2CN3C4=C(C(=O)C(N)=C(C)C4=O)C(COC(N)=O)C3(OC)C21` (stereo not drawn) [1a-myristoyl mitomycin C, la-myristoyl mitomycin C]: the figures for the MIC in series [1] (setting [7]), in series [4] and in [5] were 1.56 µg/mL (≈ 2.87 µM), 0.391 µg/mL (≈ 0.718 µM) and more than 50 µg/mL, respectively. Further, in “in vivo”, the LD50 is 45 mg/kg.
Consider `CCCCCCCC/C=C\CCCCCCCC(=O)N1C2CN3C4=C(C(=O)C(N)=C(C)C4=O)C(COC(N)=O)C3(OC)C21` (stereo not drawn) [1a-oleoyl mitomycin C, la-oleoyl mitomycin C], for which the MIC in series [1] (setting [7]) is 1.56 µg/mL (≈ 2.61 µM); in series [4], 0.782 µg/mL (≈ 1.31 µM); in [5], more than 50 µg/mL. The LD50 in “in vivo” was found to be 105 mg/kg. The “Sarcoma 180 (T/C), ratio” value in the series on Sarcoma 180 solid tumor worked out at 0.31.
Consider `CCCCCCCCCCCCCCCC(=O)N1C2CN3C4=C(C(=O)C(N)=C(C)C4=O)C(COC(N)=O)C3(OC)C21` (stereo not drawn) [1a-palmitoyl mitomycin C, la-palmitoyl mitomycin C], for which the MIC in [1] (setting [7]) was 0.782 µg/mL (≈ 1.37 µM); in series [4], 0.782 µg/mL (≈ 1.37 µM); in [5], more than 50 µg/mL. In the series “in vivo”, this compound registered a median lethal dose (LD50) of 75 mg/kg.
For `CCCCCC[C@@H](O)C/C=C\CCCCCCCC(=O)N1C2CN3C4=C(C(=O)C(N)=C(C)C4=O)C(COC(N)=O)C3(OC)C21` (stereo partly drawn) [1a-ricinoleoyl mitomycin C, la-ricinoleoyl mitomycin C], the MIC in [1] (setting [7]) was 0.782 µg/mL (≈ 1.27 µM); in series [4], 0.391 µg/mL (≈ 0.636 µM); in series [5], 0.782 µg/mL (≈ 1.27 µM). Also, the median lethal dose (LD50) in “in vivo” turned out to be 60 mg/kg. Also, the “Sarcoma 180 (T/C), ratio” value in the series on Sarcoma 180 solid tumor came out at 0.28.
Turning to `CCCCCCCCCCCCCCCCCC(=O)N1C2CN3C4=C(C(=O)C(N)=C(C)C4=O)C(COC(N)=O)C3(OC)C21` (stereo not drawn) [1a-stearoyl mitomycin C, la-stearoyl mitomycin C], the MIC in series [1] (setting [7]), in [4] and in [5] was more than 50 µg/mL throughout. In the series “in vivo”, this compound came in with an LD50 of 75 mg/kg.
For `CCCCCC/C=C/CCCCCCCCCC(=O)N1[C@H]2[C@@H]1CN1C3=C(C(=O)C(N)=C(C)C3=O)[C@@H](COC(N)=O)[C@@]21OC` [1a-vaccenoyl mitomycin C, la-vaccenoyl mitomycin C], the MIC in series [1] (setting [7]) worked out at 3.12 µg/mL (≈ 5.22 µM); in series [4] it was 0.782 µg/mL (≈ 1.31 µM); in series [5] it was 50 µg/mL (≈ 83.5 µM). The compound also yielded an LD50 in the series “in vivo” of 105 mg/kg. For the same compound, the “Sarcoma 180 (T/C), ratio” value in the series on Sarcoma 180 solid tumor came out at 0.34.
As for `CCCCCCCC/C=C\CCCCCCCCCCCC(=O)N1C2CN3C4=C(C(=O)C(N)=C(C)C4=O)C(COC(N)=O)C3(OC)C21` (stereo not drawn) [la-ercoyl mitomycin C], the MIC in series [1] (Enterococcus faecalis, ATCC10541, read-out: Minimum Inhibitory Concentration, Streptococcus faecalis ATCC 10541) is more than 50 µg/mL; in [4] it was more than 50 µg/mL; in series [5], 50 µg/mL (≈ 76.3 µM). Moreover, in the series “in vivo”, the LD50 stood at 125 mg/kg.
